Experimental data as given in PMC11999280, “Design and screening of novel endosomal escape compounds that enhance functional delivery of oligonucleotides in vitro” (Molecular Therapy. Nucleic Acids, 2025).

Columns and labels:
Type in all cases: cell-based
[1] = tested on: mCherry-GAL9 expressing HEK293 cells; test: GAL9 recruitment assay, HEK293; details: calculated mean from >3 independent exp.
Experimental: (§1) Experiments assessing GAL9 localization as an indicator for endosomal remodeling were performed as previously described[15] using 8× stablemCherry-GAL9 expressing cell lines, SHSY5Y, U2OS, 16HBE, NCI-H358, HuH7, HepG2, HEK293, and HeLa. For mCherry-GAL9 recruitment, 3,000 or 6,500 cells/well (depending upon cell line) were seeded into 384-well CellCarrier Ultra plates 24 h prior to treatment (PerkinElmer, catalog no. 6007558). An Echo 655T acoustic dispenser (Labcyte) was used for EEE dose-response preparation by transferring to the cell plate. At assay endpoints, cells were PBS washed, 4% paraformaldehyde fixed at room temperature […] (VWR, catalog no. 9713.1000), and nuclei stained with PBS +1 μg/mL Hoechst 33342 (Thermo Fisher Scientific, catalog no. H21492).
(§2) Imaging was performed using a spinning-disk confocal microscope (Yokogawa: CV8000) with a ×20w objective (numerical aperture 1.0). Cells and mCherry-GAL9 structure identification and quantification were done using Columbus image-analysis software (PerkinElmer version 2.9.0). Data processing was done using Spotfire (Tibco version 11.4) and Prism (GraphPad version 9.1.0). Image panels were assembled using the FigureJ plugin for FIJI.[43] All mCherry-GAL9 experiments were performed three times (N = 3) with duplicated wells per treatment (n = 2).

[2] = tested on: mCherry-GAL9 expressing HepG2 cells; test: GAL9 recruitment assay, HepG2; details: calculated mean from >3 independent exp.
Experimental: as §1, §2

[3] = tested on: mCherry-GAL9 expressing HuH7 cells; test: GAL9 recruitment assay, HuH7; details: calculated mean from >3 independent exp.
Experimental: as §1, §2

[4] = tested on: mCherry-GAL9 expressing U2OS cells; test: GAL9 recruitment assay, U2OS; details: calculated mean from >3 independent exp.
Experimental: as §1, §2

[5] = tested on: HeLa_Luc705 cells (pLuc/705 splice-switching reporter); test: Functional 705-SSO delivery, luciferase splice-switching assay; details: HeLa-Luc705 + 2 µM SSO, mean from >3 independent experiments
From the text: Therefore, next, we functionally screened the SSO delivery in the HeLa_Luc705 reporter cell line. HeLa_Luc705 carries a pLuc/705 splice-switching reporter luciferase gene interrupted by a mutated β-globin intron, which creates a preferentially used cryptic 5′ splice site leading to aberrant splicing. Functional SSO delivery masks the cryptic site, redirecting the splicing machinery to the right splicing site, allowing the measurement of luciferase expression (Figure S1).[25]^,[26]^,[27]^,[28] We used SSO transfection with LF2000 as transfection control and the previously published endosomal escape enhancer CMP05 (here, EEE2) as positive control.[15]
For the assessment of functional SSO therapeutics, a HeLa_Luc705 cell line was grown in DMEM media supplemented with 10% fetal bovine serum (FBS). For most treatments, 10,000 cells/well were seeded in a 96-well plate, 24 h pre-incubated with 1- to 2-μM oligonucleotide, and then treated at the described EEE concentration. At 24 h post-treatment, cells were PBS rinsed and collected for further analysis (treatments and incubation times changed accordingly to the experiment design). Luciferase readout was performed as previously described,[15] using a GloMax 96-well plate microplate luminometer (Promega) immediately after adding 30 μL auto-injected luciferin substrate (Promega Firefly Luciferase Assay System; Thermo Scientific, catalog no. 16174) in a white-walled 96-well plate containing 30 μL 0.1% Triton X-100 (Sigma-Aldrich) cell lysed. Photon exposure time and delay were set to 10 and 2 s after injection. LF2000 was used as the transfection reagent control (Thermo Scientific, catalog no. 11668019). For EEE experiments using 1 or 2 μM SSOs, the control was prepared using lipofection with 100–200 nM SSO; this is to avoid complex induced cell toxicity.
705-SSO was purchased from and synthesized by Integrated DNA Technologies. The 705-SSO sequence was previously published, containing 2′-O-methylated bases and only phosphorothioate-saturated backbone linkages were included.[15] The 705-SSO was high-performance liquid chromatography purified, shipped, and stored in IDTE buffer (10 mM Tris, 0.1 mM EDTA).

[6] = tested on: mCherry-GAL9 expressing HeLa cells; test: GAL9 recruitment assay, HeLa; details: calculated mean from >3 independent exp.
Experimental: as §1, §2

[7] = tested on: mCherry-GAL9 expressing 16HBE cells; test: GAL9 recruitment assay, 16HBE; details: calculated mean from >3 independent exp.
Experimental: as §1, §2

[8] = tested on: mCherry-GAL9 expressing NCI-H358 cells; test: GAL9 recruitment assay, NCI-H358; details: calculated mean from >3 independent exp.
Experimental: as §1, §2

[9] = tested on: mCherry-GAL9 expressing SHSY5Y cells; test: GAL9 recruitment assay, SHSY5Y; details: calculated mean from >3 independent exp.
Experimental: as §1, §2

With `COc1nn(C2CCN(CCCO)CC2)cc1Nc1ncc(F)c(-n2ccc3c(C#N)cccc32)n1` [EEE12] the “Gal9 response compared to reference” value ([1]; EEE 0.31 µM) was 0.023, the “Gal9 response compared to reference” value ([1]; EEE 0.62 µM) was 0.122 and the “Gal9 response compared to reference” value ([1]; EEE 1.25 µM) was 0.432. The “Gal9 response compared to reference” value ([1]; EEE 2.5 µM) was 0.716, the “Gal9 response compared to reference” value ([1]; EEE 5 µM) was 0.604 and the “Gal9 response compared to reference” value ([1]; EEE 10 µM) was 0.273. The “Gal9 response compared to reference” value ([2]; EEE 0.31 µM) was 0.008, the “Gal9 response compared to reference” value ([2]; EEE 0.62 µM) was 0.010 and the “Gal9 response compared to reference” value ([2]; EEE 1.25 µM) was 0.038. For the same molecule, the “Gal9 response compared to reference” value ([2]; EEE 2.5 µM) was 0.146, the “Gal9 response compared to reference” value ([2]; EEE 5 µM) was 0.517 and the “Gal9 response compared to reference” value ([2]; EEE 10 µM) was 0.574. The “Gal9 response compared to reference” value ([3]; EEE 0.31 µM) was 0.014, the “Gal9 response compared to reference” value ([3]; EEE 0.62 µM) was 0.031 and the “Gal9 response compared to reference” value ([3]; EEE 1.25 µM) was 0.143. For the same molecule, the “Gal9 response compared to reference” value ([3]; EEE 2.5 µM) was 0.357, the “Gal9 response compared to reference” value ([3]; EEE 5 µM) was 0.232 and the “Gal9 response compared to reference” value ([3]; EEE 10 µM) was 0.103. The “Gal9 response compared to reference” value ([4]; EEE 0.31 µM) was 0.013, the “Gal9 response compared to reference” value ([4]; EEE 0.62 µM) was 0.017 and the “Gal9 response compared to reference” value ([4]; EEE 1.25 µM) was 0.057. The “Gal9 response compared to reference” value ([4]; EEE 2.5 µM) was 0.299, the “Gal9 response compared to reference” value ([4]; EEE 5 µM) was 0.511 and the “Gal9 response compared to reference” value ([4]; EEE 10 µM) was 0.588. For the same molecule, the “Luciferase expression compared to reference” value ([5]; EEE 2.5 - 3 µM) was 1.720, the “Gal9 response compared to reference” value ([6]; EEE 0.31 µM) was 0.005 and the “Gal9 response compared to reference” value ([6]; EEE 0.62 µM) was 0.015. The “Gal9 response compared to reference” value ([6]; EEE 1.25 µM) was 0.195, the “Gal9 response compared to reference” value ([6]; EEE 2.5 µM) was 0.550 and the “Gal9 response compared to reference” value ([6]; EEE 5 µM) was 0.394. The “Gal9 response compared to reference” value ([6]; EEE 10 µM) was 0.118, the “Gal9 response compared to reference” value ([7]; EEE 0.31 µM) was 0.014 and the “Gal9 response compared to reference” value ([7]; EEE 0.62 µM) was 0.063. The “Gal9 response compared to reference” value ([7]; EEE 1.25 µM) was 0.180, the “Gal9 response compared to reference” value ([7]; EEE 2.5 µM) was 0.658 and the “Gal9 response compared to reference” value ([7]; EEE 5 µM) was 0.681. The “Gal9 response compared to reference” value ([7]; EEE 10 µM) was 0.421, the “Gal9 response compared to reference” value ([8]; EEE 0.31 µM) was 0.018 and the “Gal9 response compared to reference” value ([8]; EEE 0.62 µM) was 0.032. The “Gal9 response compared to reference” value ([8]; EEE 1.25 µM) was 0.128, the “Gal9 response compared to reference” value ([8]; EEE 2.5 µM) was 0.574 and the “Gal9 response compared to reference” value ([8]; EEE 5 µM) was 0.607. The “Gal9 response compared to reference” value ([8]; EEE 10 µM) was 0.422, the “Gal9 response compared to reference” value ([9]; EEE 0.31 µM) was 0.014 and the “Gal9 response compared to reference” value ([9]; EEE 0.62 µM) was 0.271. The “Gal9 response compared to reference” value ([9]; EEE 1.25 µM) was 0.742, the “Gal9 response compared to reference” value ([9]; EEE 2.5 µM) was 0.706 and the “Gal9 response compared to reference” value ([9]; EEE 5 µM) was 0.575. The “Gal9 response compared to reference” value ([9]; EEE 10 µM) was 0.177.
In the case of `CCOc1nn(C2CCN(C)CC2)cc1Nc1ncc(F)c(-n2ccc3c(C#N)cccc32)n1` [EEE13], the “Gal9 response compared to reference” value ([1]; EEE 0.31 µM) is reported as 0.018, the “Gal9 response compared to reference” value ([1]; EEE 0.62 µM) is reported as 0.024 and the “Gal9 response compared to reference” value ([1]; EEE 1.25 µM) is reported as 0.021. For the same molecule, the “Gal9 response compared to reference” value ([1]; EEE 2.5 µM) was 0.020, the “Gal9 response compared to reference” value ([1]; EEE 5 µM) was 0.032 and the “Gal9 response compared to reference” value ([1]; EEE 10 µM) was 0.097. The “Gal9 response compared to reference” value ([2]; EEE 0.31 µM) was 0.008, the “Gal9 response compared to reference” value ([2]; EEE 0.62 µM) was 0.007 and the “Gal9 response compared to reference” value ([2]; EEE 1.25 µM) was 0.008. The “Gal9 response compared to reference” value ([2]; EEE 2.5 µM) was 0.009, the “Gal9 response compared to reference” value ([2]; EEE 5 µM) was 0.006 and the “Gal9 response compared to reference” value ([2]; EEE 10 µM) was 0.007. For the same molecule, the “Gal9 response compared to reference” value ([3]; EEE 0.31 µM) was 0.010, the “Gal9 response compared to reference” value ([3]; EEE 0.62 µM) was 0.007 and the “Gal9 response compared to reference” value ([3]; EEE 1.25 µM) was 0.011. The “Gal9 response compared to reference” value ([3]; EEE 2.5 µM) was 0.015, the “Gal9 response compared to reference” value ([3]; EEE 5 µM) was 0.012 and the “Gal9 response compared to reference” value ([3]; EEE 10 µM) was 0.046. For the same molecule, the “Gal9 response compared to reference” value ([4]; EEE 0.31 µM) was 0.014, the “Gal9 response compared to reference” value ([4]; EEE 0.62 µM) was 0.011 and the “Gal9 response compared to reference” value ([4]; EEE 1.25 µM) was 0.010. For the same molecule, the “Gal9 response compared to reference” value ([4]; EEE 2.5 µM) was 0.014, the “Gal9 response compared to reference” value ([4]; EEE 5 µM) was 0.023 and the “Gal9 response compared to reference” value ([4]; EEE 10 µM) was 0.072. For the same molecule, the “Luciferase expression compared to reference” value ([5]; EEE 5 µM) was 1.314, the “Luciferase expression compared to reference” value ([5]; EEE 1-1.25 µM) was 0.743 and the “Luciferase expression compared to reference” value ([5]; EEE 2.5 - 3 µM) was 0.692. The “Gal9 response compared to reference” value ([6]; EEE 0.31 µM) was 0.005, the “Gal9 response compared to reference” value ([6]; EEE 0.62 µM) was 0.004 and the “Gal9 response compared to reference” value ([6]; EEE 1.25 µM) was 0.004. The “Gal9 response compared to reference” value ([6]; EEE 2.5 µM) was 0.003, the “Gal9 response compared to reference” value ([6]; EEE 5 µM) was 0.007 and the “Gal9 response compared to reference” value ([6]; EEE 10 µM) was 0.023. The “Gal9 response compared to reference” value ([7]; EEE 0.31 µM) was 0.009, the “Gal9 response compared to reference” value ([7]; EEE 0.62 µM) was 0.011 and the “Gal9 response compared to reference” value ([7]; EEE 1.25 µM) was 0.010. For the same molecule, the “Gal9 response compared to reference” value ([7]; EEE 2.5 µM) was 0.013, the “Gal9 response compared to reference” value ([7]; EEE 5 µM) was 0.044 and the “Gal9 response compared to reference” value ([7]; EEE 10 µM) was 0.306. The “Gal9 response compared to reference” value ([8]; EEE 0.31 µM) was 0.019, the “Gal9 response compared to reference” value ([8]; EEE 0.62 µM) was 0.018 and the “Gal9 response compared to reference” value ([8]; EEE 1.25 µM) was 0.013. The “Gal9 response compared to reference” value ([8]; EEE 2.5 µM) was 0.014, the “Gal9 response compared to reference” value ([8]; EEE 5 µM) was 0.015 and the “Gal9 response compared to reference” value ([8]; EEE 10 µM) was 0.038. For the same molecule, the “Gal9 response compared to reference” value ([9]; EEE 0.31 µM) was 0.014, the “Gal9 response compared to reference” value ([9]; EEE 0.62 µM) was 0.015 and the “Gal9 response compared to reference” value ([9]; EEE 1.25 µM) was 0.012. The “Gal9 response compared to reference” value ([9]; EEE 2.5 µM) was 0.013, the “Gal9 response compared to reference” value ([9]; EEE 5 µM) was 0.044 and the “Gal9 response compared to reference” value ([9]; EEE 10 µM) was 0.421.
